Where a name gives a salt, the structure may show the parent alone.
Molecular target: T1, recombinant guanylate cyclase reporter cell line (Rattus norvegicus, UniProt P19686+P20595)
T1 construct: expressed in transfected cells; host or cells: recombinant reporter cell line
T1 sequence (P19686 1-690): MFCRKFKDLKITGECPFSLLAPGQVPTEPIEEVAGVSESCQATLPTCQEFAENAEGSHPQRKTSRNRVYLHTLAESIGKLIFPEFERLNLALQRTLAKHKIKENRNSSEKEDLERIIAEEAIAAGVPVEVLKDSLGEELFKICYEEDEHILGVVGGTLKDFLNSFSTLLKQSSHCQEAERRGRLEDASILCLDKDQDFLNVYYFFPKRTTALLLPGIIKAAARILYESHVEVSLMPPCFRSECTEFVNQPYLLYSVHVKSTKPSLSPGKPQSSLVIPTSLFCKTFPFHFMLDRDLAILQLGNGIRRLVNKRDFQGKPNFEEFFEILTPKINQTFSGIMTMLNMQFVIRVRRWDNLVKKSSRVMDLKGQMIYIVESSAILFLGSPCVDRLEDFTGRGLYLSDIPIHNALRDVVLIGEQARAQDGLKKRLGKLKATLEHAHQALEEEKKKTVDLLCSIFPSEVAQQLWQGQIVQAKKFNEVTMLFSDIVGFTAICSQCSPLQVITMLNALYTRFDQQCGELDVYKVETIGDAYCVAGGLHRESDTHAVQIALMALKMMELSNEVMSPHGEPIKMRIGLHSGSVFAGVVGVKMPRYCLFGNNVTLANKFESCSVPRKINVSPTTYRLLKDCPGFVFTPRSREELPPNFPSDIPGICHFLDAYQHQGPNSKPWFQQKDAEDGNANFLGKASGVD
T1 sequence (P20595 1-619): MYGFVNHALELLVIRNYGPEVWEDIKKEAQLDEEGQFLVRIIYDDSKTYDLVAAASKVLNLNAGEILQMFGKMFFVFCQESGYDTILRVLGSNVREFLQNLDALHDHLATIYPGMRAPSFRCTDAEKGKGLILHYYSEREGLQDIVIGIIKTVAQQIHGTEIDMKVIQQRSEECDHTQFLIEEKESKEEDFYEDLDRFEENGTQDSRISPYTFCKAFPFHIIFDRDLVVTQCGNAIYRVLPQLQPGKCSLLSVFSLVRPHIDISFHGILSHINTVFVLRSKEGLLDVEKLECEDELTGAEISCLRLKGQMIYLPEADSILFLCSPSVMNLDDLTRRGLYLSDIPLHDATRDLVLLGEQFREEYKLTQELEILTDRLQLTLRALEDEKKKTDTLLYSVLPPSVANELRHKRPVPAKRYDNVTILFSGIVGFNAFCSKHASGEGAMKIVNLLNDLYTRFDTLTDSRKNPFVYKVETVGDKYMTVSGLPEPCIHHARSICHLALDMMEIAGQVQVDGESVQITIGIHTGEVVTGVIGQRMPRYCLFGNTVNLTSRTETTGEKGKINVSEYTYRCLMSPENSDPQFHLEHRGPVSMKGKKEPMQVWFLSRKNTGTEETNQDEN
Assay: Action on recombinant guanylate cyclase reporter cell line
Type: cell-based
Settings: in some cases mean values from individual determinations
Outline: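 Whole-cell reporter assay with recombinant guanylate cyclase; endpoint = minimal effective concentration.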

| SMILES | MEC (minimal effective concentration) |
| --- | --- |
| Cc1cc(OCc2c(F)cccc2F)c2nc(C)c(C(=O)NC3CCC(N)C3)n2c1 (mixture of isomers) [Example 308, N-(3-aminocyclopentyl)-8-[(2,6-difluorobenzyl)oxy]-2,6-dimethylimidazo[1,2-a]pyridine-3-carboxamide (stereoisomer mixture)] | 0.20 µM |
| CCC(C)(N)CNC(=O)c1c(C)nc2c(OCc3c(F)cccc3F)cccn12 (racemic) [Example 254, rac-N-(2-Amino-2-methylbutyl)-8-[(2,6-difluorobenzyl)oxy]-2-methylimidazo[1,2-a]pyridine-3-carboxamide] | 0.30 µM |
| Cc1cc(OCc2c(F)cccc2F)c2nc(C)c(C(=O)NCC(N)C#N)n2c1 (racemic) [Example 400, rac-N-(2-amino-2-cyanoethyl)-8-[(2,6-difluorobenzyl)oxy]-2,6-dimethylimidazo[1,2-a]pyridine-3-carboxamide] | 0.65 µM |
| Cc1cc(OCc2c(F)cccc2F)c2nc(C)c(C(=O)NCC(C)(C)NCCO)n2c1 [Example 349, 8-[(2,6-Difluorobenzyl)oxy]-N-{2-[(2-hydroxyethyl)amino]-2-methylpropyl}-2,6-dimethylimidazo[1,2-a]pyridine-3-carboxamide] | 1.00 µM |
| Cc1nc2c(OCc3c(F)cccc3F)cc(Cl)cn2c1C(=O)NCC(C)(N)C(F)(F)F (racemic) [Example 236, rac-N-(2-Amino-3,3,3-trifluoro-2-methylpropyl)-6-chloro-8-[(2,6-difluorobenzyl)oxy]-2-methyl-imidazo[1,2-a]pyridine-3-carboxamide] | 0.30 µM |
| Cc1nc2c(OCC3CCCCC3)cccn2c1C(=O)NC(CN)c1ccc(Cl)cc1 (racemic) [Example 43, rac-N-[2-Amino-1-(4-chlorophenyl)ethyl]-8-(cyclohexylmethoxy)-2-methylimidazo[1,2-a]-pyridine-3-carboxamide] | 1.00 µM |
| CCCC(C)(N)CNC(=O)c1c(C)nc2c(OCc3cccc(F)c3)cc(C)cn12 (racemic) [Example 348, rac-N-(2-amino-2-methylpentyl)-8-[(3-fluorobenzyl)oxy]-2,6-dimethylimidazo[1,2-a]pyridine-3-carboxamide] | 1.00 µM |
| Cc1cc(OCc2c(F)cccc2F)c2nc(C)c(C(=O)NC3CCC3N)n2c1 (single isomer, unassigned; enantiomer b) [Example 329, ent-N-(2-aminocyclobutyl)-8-[(2,6-difluorobenzyl)oxy]-2,6-dimethylimidazo[1,2-a]pyridine-3-carboxamide (Enantiomer B)] | 0.30 µM |
| CCCC(C)(N)CNC(=O)c1c(C)nc2c(OCc3c(F)cccc3F)cc(CC)cn12 (stereo not drawn) [Example 323, ent-N-(2-amino-2-methylpentyl)-8-[(2,6-difluorobenzyl)oxy]-6-ethyl-2-methylimidazo[1,2-a]pyridine-3-carboxamide] | 0.30 µM |
| Cc1nc2c(OCc3c(F)cccc3F)cc(Cl)cn2c1C(=O)NCCN1C[C@@H](C)O[C@@H](C)C1 [Example 158, 6-chloro-8-[(2,6-difluorobenzyl)oxy]-N-{2-[(2R,6S)-2,6-dimethylmorpholin-4-yl]ethyl}-2-methylimidazo[1,2-a]pyridine-3-carboxamide] | 0.30 µM |
| Cc1nc2c(OCc3c(F)cccc3F)cccn2c1C(=O)N[C@H]1CCCNC1 [Example 60, 8-[(2,6-difluorobenzyl)oxy]-2-methyl-N-[(3S)-piperidin-3-yl]imidazo[1,2-a]pyridine-3-carboxamide dihydrochloride] | 0.30 µM |
| COCC(N)CNC(=O)c1c(C)nc2c(OCc3c(F)cccc3F)cc(C)cn12 (single isomer, unassigned) [Example 243, ent-N-(2-Amino-3-methoxypropyl)-8-[(2,6-difluorobenzyl)oxy]-2,6-dimethylimidazo[1,2-a]-pyridine-3-carboxamide] | 1.00 µM |
| Cc1cc(OCc2c(F)cccc2F)c2nc(C)c(C(=O)NCCN3C[C@@H](C)O[C@@H](C)C3)n2c1 [Example 167, 8-[(2,6-difluorobenzyl)oxy]-N-{2-[(2R,6S)-2,6-dimethylmorpholin-4-yl]ethyl}-2,6-dimethyl-imidazo[1,2-a]pyridine-3-carboxamide] | 1.00 µM |
| Cc1nc2c(OCc3c(F)cccc3F)cc(CF)cn2c1C(=O)NCC(C)(N)CF (stereo not drawn) [Example 405] | 0.30 µM |
| Cc1cc(OCc2c(F)cccc2F)c2nc(C)c(C(=O)NC(CN)c3ccc4ncccc4c3)n2c1 (racemic) [Example 395, rac-N-[2-amino-1-(quinolin-6-yl)ethyl]-8-[(2,6-difluorobenzyl)oxy]-2,6-dimethylimidazo[1,2-a]pyridine-3-carboxamide] | 1.00 µM |
| Cc1cc(OCc2c(F)cccc2F)c2nc(C)c(C(=O)NCC(C)(N)CCOCc3ccccc3)n2c1 (racemic) [Example 262, rac-N-[2-Amino-4-(benzyloxy)-2-methylbutyl]-8-[(2,6-difluorobenzyl)oxy]-2,6-dimethylimidazo-[1,2-a]pyridine-3-carboxamide] | 0.10 µM |
| Cc1cc(OCc2c(F)cccc2F)c2nc(C)c(C(=O)NCC3(N)COC3)n2c1 [Example 216, N-[(3-Aminooxetan-3-yl)methyl]-8-[(2,6-difluorobenzyl)oxy]-2,6-dimethylimidazo[1,2-a]pyridine-3-carboxamide] | 1.00 µM |
| Cc1nc2c(OCc3c(F)cccc3F)cccn2c1C(=O)NCCN(CC(F)F)C1CC1 [Example 146, N-{2-[cyclopropyl(2,2-difluoroethyl)amino]ethyl}-8-[(2,6-difluorobenzyl)oxy]-2-methylimidazo[1,2-a]-pyridine-3-carboxamide] | 1.00 µM |
| Cc1cc(OCc2c(F)cccc2F)c2nc(C)c(C(=O)NC(CN)c3cccc(OCCO)c3)n2c1 (racemic) [Example 393, rac-N-{2-amino-1-[3-(2-hydroxyethoxy)phenyl]ethyl}-8-[(2,6-difluorobenzyl)oxy]-2,6-dimethylimidazo[1,2-a]pyridine-3-carboxamide] | 1.00 µM |
| Cc1nc2c(OCc3c(F)cccc3F)cc(Cl)cn2c1C(=O)NCC(N)CC(F)(F)F (racemic) [Example 147, rac-N-(2-amino-4,4,4-trifluorobutyl)-6-chloro-8-[(2,6-difluorobenzyl)oxy]-2-methylimidazo[1,2-a]pyridine-3-carboxamide] | 0.30 µM |
| Cc1cc(OCc2c(F)cccc2F)c2nc(C)c(C(=O)NCC(N)CCS(C)(=O)=O)n2c1 (racemic) [Example 413, rac-N-[2-amino-4-(methylsulfonyl)butyl]-8-[(2,6-difluorobenzyl)oxy]-2,6-dimethylimidazo[1,2-a]pyridine-3-carboxamide] | 5.5 µM |
| CCCC[C@H](CN(CC)CC)NC(=O)c1c(C)nc2c(OCc3c(F)cccc3F)cccn12 [Example 69, ent-8-[(2R)-1-(diethylamino)hexan-2-yl]-8-[(2,6-difluorobenzyl)oxy]-2-methylimidazo[1,2-a]-pyridine-3-carboxamide] | 1.00 µM |
| Cc1cc(OCc2c(F)cccc2F)c2nc(C)c(C(=O)NC(CN)c3cccc(Br)c3)n2c1 (racemic) [Example 383, rac-N-[2-amino-1-(3-bromophenyl)ethyl]-8-[(2,6-difluorobenzyl)oxy]-2,6-dimethylimidazo[1,2-a]pyridine-3-carboxamide] | 0.30 µM |
| Cc1cc(OCc2c(F)cccc2F)c2nc(C)c(C(=O)NCC(C)(N)Cc3ccc(F)cc3)n2c1 (racemic) [Example 296, rac-N-[2-amino-3-(4-fluorophenyl)-2-methylpropyl]-8-[(2,6-difluorobenzyl)oxy]-2,6-dimethylimidazo[1,2-a]pyridine-3-carboxamide] | 0.10 µM |
